How the values were obtained:
BJ-5ta cells = assay: Cell proliferation assay ([3H]TdR incorporation); type: cell-based, human; conditions: for level of cell proliferation ([3H]TdR incorporation): 1 nM dose, CFPS-produced protein
Experimental: BJ-5ta cells, human immortalized foreskin fibroblast cells that express human EGFR (American Type Culture Collection), were plated in 96-well plates at a density of 2500 cells per well in 100 μl of full medium [Dulbecco's modified Eagle's medium (DMEM)] supplemented with 1% penicillin/streptomycin (Pen/Strep), 1% I-glutamine, 1% sodium pyruvate, 20% M199, and 10% fetal bovine serum. All cell culture reagents were from invitrogen. After 24 h, cells were serum-starved for 48 h in serum-free medium (DMEM supplemented with 1% Pen/Strep, 1% I-glutamine, 1% sodium pyruvate, and 20% M199). The medium was then replaced with 100 μl of serum-free medium containing the indicated concentrations of treatment protein.
When indicated, the standard serum-free medium used during protein treatment was replaced with advanced media (Advanced DMEM supplemented with 1% Pen/Strep, 1% I-glutamine, 1% sodium pyruvate, and 20% M199) or supplemented with human recombinant insulin. […]
[3H]TdR incorporation was measured 24 h later by freezing the plates at −80° C. overnight, thawing the plates at room temperature, harvesting the cells onto glass fiber filter mats (Perkin Elmer) with a Mach IIIM Harvester (Tomtec), and performing scintillation counting with a Wallac MicroBeta Counter (Perkin Elmer).
BJ5ta cells were plated in 96-well plates at densities of 2,500 cells/well (BJ5ta), in 100 μl of complete medium. […] 3H-TdR incorporation was measured 24 h later by freezing the cells overnight at −80° C. and harvesting the cells onto glass fiber filtermats (Perkin Elmer) using a Mach IIIM harvester (Tomtec). […]
BJ-5ta cells were plated in 96-well plates at a density of 5,000 cells/well and 2,500 cells/well, respectively, in 100 μl of medium. […] 3H-TdR incorporation was measured 24 h later by harvesting the cells onto glass fiber filtermats (Perkin Elmer, Waltham, Mass.) using a Mach IIIM harvester (Tomtec, Hamden, Conn.) and performing scintillation counting with a Wallac MicroBeta (Perkin Elmer, Waltham, Mass.).

BJ5ta cells = assay: Chemotactic cell migration assay, BJ-5ta; type: cell-based, human; conditions: 0.3 nM, 3-hour exposure
Experimental: Non-migrated cells were removed by wiping the upper side of the membrane with a cotton swab. The transwells were washed three times with PBS, fixed with methanol, and stained with modified Giemsa. Pictures were taken of the migrated stained cells in nine random high-powered fields (20×) using light microscopy, and the number of migrated cells was counted.
Costar transwells (Corning 3422, 8.0 μm pores, 6.5 mm diameter) were coated on both sides with 10 μg/ml bovine fibronectin (Sigma F1141-2MG, 1 mg/ml) overnight at 4° C. in buffer (50 mM Tris-HCl, 500 mM NaCl, pH 7.5), Transwells were then washed 3 times with PBS, and then blocked with PBS with 1% BSA (PBS/BSA) at 37° C. for 1 hr prior to usage. […] Non-migrated cells were removed by wiping the upper side of the membrane with Q-tips. […] Pictures were taken of the migrated-stained cells in nine random high-powered fields (20×) using light microscopy, and the number of migrated cells was counted using ImageJ software.
Costar transwells (8.0 μm pores, 6.5 mm diameter) were coated on both sides with bovine fibronectin (10 μg/ml) overnight at 4° C. washed 3 times with PBS, and then blocked with 1% bovine serum albumin (BSA) in PBS at 37° C. for 1 h prior to usage. […] Pictures were taken of the migrated-stained cells in nine random high powered fields (20×) using light microscopy, and the number of migrated cells were counted.

NR6WT cells = assay: Chemotactic cell migration assay, NR6WT; type: cell-based, murine; conditions: 0.3 nM, 3-hour exposure
Experimental: (§1) Costar transwells (8.0 μm pores, 6.5 mm diameter) were coated on both sides with bovine fibronectin (10 μg/ml) overnight at 4° C. washed 3 times with PBS, and then blocked with 1% bovine serum albumin (BSA) in PBS at 37° C. for 1 h prior to usage. […] Non-migrated cells were removed by wiping the upper side of the membrane with a cotton swab. The transwells were washed three times with PBS, fixed with methanol, and stained with modified Giemsa. Pictures were taken of the migrated-stained cells in nine random high powered fields (20×) using light microscopy, and the number of migrated cells were counted.

BALB/3T3 cells = assay: Chemotactic cell migration assay, BALB/3T3; type: cell-based; conditions: 0.3 nM, 3-hour exposure
Experimental: as §1

[1] = test system: ErbB receptors expressed on the surface of CHO cells; assay: EGF ligand specificity on transfected CHO cells; type: binding; conditions: 25 nM, 10 min, CHO cells individually expressing ErbB receptors
Experimental: The binding specificities of wild-type and mutant EGF were determined by flow cytometry using CHO cells transfected with EGFR or other ErbB receptor family members. […] Cells were labeled with a FITC-conjugated antibody directed against the N-terminal FLAG epitope tag on EGF and analyzed by flow cytometry.

hEGFR and mEGFR = assay: SPR pH titration binding (Example 3); parameters: species or system human and murine; conditions: 200 nM ligand, pH 5.0 to 8.5
Experimental: pH titration binding experiments were performed at 25° C. in degassed buffer at various pHs ranging from 5.0 to 8.5. Wild-type and mutant EGF were diluted to 200 nM in pH buffer and flowed over the surface of the hEGFR sensorchip at a flow rate of 20 μL/min for 2 min. The hEGFR and mEGFR surfaces were regenerated as noted above. pH titration binding experiments were performed in triplicate at each pH over flow cells one and two for bath the hEGFR and mEGFR surfaces. The steady-state binding response was measured for each growth factor at the association phase plateau of the sensorgram.

Substance: L47D: EGF point mutant, leucine 47 substituted with aspartic acid, used in mock libraries (NSDSECPLSHDGYCLHDGVCMYIEALDKYACNCVVGYIGERCQYRDDKWWELR; not fully specified; Epidermal growth factor; UniProt P01133 971-1023, looked up, variant L47D)
- level of cell proliferation ([3H]TdR incorporation) (BJ-5ta cells): intermediate

Substance: L47R: EGF point mutant, leucine 47 substituted with arginine, used in mock libraries (NSDSECPLSHDGYCLHDGVCMYIEALDKYACNCVVGYIGERCQYRDRKWWELR; not fully specified; Epidermal growth factor; UniProt P01133 971-1023, looked up, variant L47R)
- level of cell proliferation ([3H]TdR incorporation) (BJ-5ta cells): low

Substance: m123: high-affinity mutant EGF SEQ ID NO:17: NSYSECPPSYDGYCLHDGVCRYIEALDSYACNCVVGYAGERCQYRDLRWWGRR
- cell proliferation compared to wild-type EGF (BJ-5ta cells; varying concentrations, 72 hours): no significant changes in the levels of cell proliferation
- chemotactic migration compared to wild-type EGF, BJ-5ta (BJ5ta cells): increased chemotactic migration
- chemotactic migration compared to wild-type EGF, NR6WT (NR6WT cells): increased chemotactic migration
- chemotactic migration compared to wild-type EGF, BALB/3T3 (BALB/3T3 cells): increased chemotactic migration
- ErbB binding specificity [1]: bound specifically to EGFR but not to other ErbB receptor family members
- pH sensitivity of steady-state binding to EGFR (hEGFR and mEGFR): much less so

From patent US8865864B2, “Mutant epidermal growth factor polypeptides with improved biological activity and methods of their making and use” (The Board of Trustees of the Leland Stanford Junior …, priority 2011, dated 2014)
